Measurements as given in patent US9381173B2, “Isolated stereoisomeric forms of (S)2-N(3-O-(propan 2-Ol)-1-propyl-4-hydroxybenzene)-3-phenylpropylamide” (Novaremed Ltd., priority 2011, dated 2016).

Test system: spinal nerve ligation (SNL or Chung) model for neuropathic pain in rats
Experiment: Spinal nerve ligation (Chung) model, Von Frey test for mechanical allodynia
Assay type: in vivo
Settings: for delta force right minus left leg, Day 14 Pretreatment / mean Von Frey force, left operated leg, Day 14 Pretreatment: before first dose; for difference (delta) force between right healthy leg and left operated leg, Baseline: before operation; for mean Von Frey force required for withdrawal of the left operated leg, Baseline: day -1, before operation
Protocol: The antinociceptive and analgesic activity of E1 in a spinal nerve ligation (SNL or Chung) model for neuropathic pain in rats was evaluated.
On study day 0, all animals underwent Chung surgery, which consisted of an operation where the left L5-L6 spinal nerves were isolated and cut. Fourteen days post surgery the animals were selected using pain threshold results from the Von Frey test. Only animals that indicated signs of mechanical allodynia were included in the study. After the selection process, the animals were grouped and Test Items were administered via IP. The pain response was measured using Von Frey methodology at 2, 5 and 24 hours after Test Item administration on study day 14, and at 2, 5, 24 and 48 hours on study day 21 after 7 days of Test Item administration.
Species: 50 SD young adult male rats, 225-260 g at study initiation (Harlan Laboratories, Israel. Ltd.)
Neuropathic Pain Induction: While under anesthesia using ketamine/xylazine sodium and after the area was shaved, the rat was placed in a prone position and the left paraspinal muscles were separated from the spinous process at the L4-S2 levels. The L6 vertebral transverse process was carefully removed with a small rongeur to visually identify the L5-L6 spinal nerves. The left L5-L6 spinal nerves were cut. The muscle was then closed with 4-0 silk sutures and the skin was closed by a clamp. Following surgery, the rats were returned to the cage and remained under a heating lamp until they awoke.
Inclusion/Exclusion Criteria for Pre-Selection: On post-operative day 14, animals were tested for mechanical allodynia using Von Frey methodology prior to being placed in their experimental groups. Only animals with a pain threshold of ≦26 g for the operated leg were included in the study. In order to form homogenous treatment groups and to adhere to randomization, all the operated rats were grouped according to inclusion/exclusion criteria.
The Von Frey test was performed prior to Test Items' administrations (pre-TI injection) and at 2 and 5 hours after TI administration (post-TI injection) on study days 14 and 21.
Von Frey test was performed prior to TI's administration on study day 15 (24 hours post-TI's administration on study day 14) and on study days 22 and 23 (24 and 48 hours respectively post-TI's administration on study day 21).
Pain Response Evaluation: Pain response was evaluated using Von Frey test for mechanical allodynia.
The Von Frey test for mechanical allodynia is based on applying short pulses of pressure that are not painful to a naive animal. In fact, in order to achieve paw withdrawal from a naive animal, the pressure applied is sometimes higher than 60 g. This often requires the researcher to apply enough pressure with the Von Frey filament to actually lift the paw of the naive animal. However, in disease conditions, the animals are sensitive to much lower pressure and experience pain as a result of a normally non-painful stimulus.
Mechanical Allodynia Evaluation (Von Frey Testing): Allodynic response to tactile stimulation was assessed using the Von Frey apparatus (Touch®).
The rats were placed in an enclosure and positioned on a metal mesh surface, but allowed to move freely. The rats' cabins were covered with red cellophane to diminish environmental disturbances. The test began after cessation of exploratory behavior. The set of Von Frey monofilaments provide an approximate logarithmic scale of actual force and a linear scale of perceived intensity as provided by the manufacturer of the Von Frey apparatus (Ugo Basil). The operating principle: When the tip of a fiber of given length and diameter is pressed against the skin at right angles, the force of application increases as long as the researcher continues to advance the probe until the fiber bends. After the fiber bends, the probe continues to advance, causing the fiber to bend more, but without additional force being applied to the paw. […]

[1] = 7.5 mg/kg IP, day 14, 2, 5 and 24 hours
[2] = 7.5 mg/kg IP, study day 14, 2, 5 and 24 hours
[3] = 15 mg/kg IP once daily day 14-21 (group 4)
[4] = 15 mg/kg IP, day 14, 5 and 24 hours
[5] = 15 mg/kg IP, study day 14, 5 and 24 hours
[6] = 30 mg/kg IP once daily day 14-21 (group 3)
[7] = 30 mg/kg IP once daily from day 14 (group 3)
[8] = 30 mg/kg IP, day 21, 2, 5 and 24 hours

CC(O)COCC(Cc1ccc(O)cc1)NC(=O)CCc1ccccc1 (single isomer, unassigned) [E1]
delta force right minus left leg, Day 14 Pretreatment (7.5 mg/kg IP (group 5)): 50.10 ± 0.64 g
mean Von Frey force, left operated leg, Day 14 Pretreatment (7.5 mg/kg IP (group 5)): 9.90 ± 0.64 g
difference (delta) force between right healthy leg and left operated leg, Baseline (7.5 mg/kg IP (group 5)): 0.00 ± 0.00 g
mean Von Frey force required for withdrawal of the left operated leg, Baseline (7.5 mg/kg IP (group 5)): 56.60 ± 3.40 g
inhibition of allodynia compared to the pretreatment value of delta withdrawal force [1]: inhibited allodynia
pain relief activity, delta withdrawal force between the two legs vs. Vehicle [1]: significant pain relief activity
inhibition of allodynia compared to the pretreatment value of delta withdrawal force (7.5 mg/kg IP, day 21, 5 hours): inhibited allodynia
pain relief activity, delta withdrawal force between the two legs vs. Vehicle (7.5 mg/kg IP, day 21 pretreatment, 2, 5, 24 and 48 hours): significant pain relief activity
inhibition of allodynia (Von Frey) compared to the Vehicle control [2]: effectively inhibited allodynia
inhibition of allodynia (Von Frey) compared to the pretreatment value [2]: inhibited allodynia
inhibition of allodynia (Von Frey) compared to the pretreatment value (7.5 mg/kg IP, study day 21, 5 hours): inhibited allodynia
inhibition of allodynia (Von Frey) compared to the Vehicle control (7.5 mg/kg IP, study day 21 pretreatment and 2, 5, 24 and 48 hours): inhibited allodynia
conclusion: pain analgesic item, parameters of mechanical allodynia (7.5 mg/kg, 2, 5 and 24 hours day 14, 2, 5, 24 and 48 hours day 21): effective
delta force right minus left leg, Day 14 Post-treatment 2 hours (15 mg/kg IP (group 4)): 48.20 ± 5.67 g
delta force right minus left leg, Day 14 Post-treatment 5 hours (15 mg/kg IP (group 4)): 29.20 ± 6.66 g
mean Von Frey force, left operated leg, Day 14 Post-treatment 2 hours (15 mg/kg IP (group 4)): 11.80 ± 5.67 g
delta force right minus left leg, Day 14 Pretreatment (15 mg/kg IP (group 4)): 50.20 ± 0.90 g
mean Von Frey force, left operated leg, Day 14 Pretreatment (15 mg/kg IP (group 4)): 9.80 ± 0.90 g
difference (delta) force between right healthy leg and left operated leg, Baseline (15 mg/kg IP (group 4)): 0.00 ± 0.00 g
mean Von Frey force required for withdrawal of the left operated leg, Baseline (15 mg/kg IP (group 4)): 56.60 ± 3.40 g
delta force right minus left leg, Day 21 Post-treatment 48 hours [3]: 39.80 ± 4.80 g
mean Von Frey force, left operated leg, Day 21 Post-treatment 48 hours [3]: 20.20 ± 4.80 g
inhibition of allodynia compared to the pretreatment value of delta withdrawal force [4]: inhibited allodynia
pain relief activity, delta withdrawal force between the two legs vs. Vehicle [4]: significant pain relief activity
pain relief activity, delta withdrawal force between the two legs vs. Vehicle (15 mg/kg IP, day 21 pretreatment, 2, 5 and 24 hours): significant pain relief activity
inhibition of allodynia (Von Frey) compared to the Vehicle control [5]: inhibited allodynia
inhibition of allodynia (Von Frey) compared to the pretreatment value [5]: inhibited allodynia
inhibition of allodynia (Von Frey) compared to the Vehicle control (15 mg/kg IP, study day 14, 2 hours): did not inhibit allodynia
inhibition of allodynia (Von Frey) compared to the Vehicle control (15 mg/kg IP, study day 21, 48 hours): less effective
inhibition of allodynia (Von Frey) compared to the Vehicle control (15 mg/kg IP, study day 21 pretreatment, 2, 5 and 24 hours): inhibited allodynia
conclusion: pain analgesic item, parameters of mechanical allodynia (15 mg/kg, 5 and 24 hours day 14, 2, 5 and 24 hours day 21): effective
delta force right minus left leg, Day 14 Post-treatment 2 hours (30 mg/kg IP (group 3)): 46.80 ± 1.70 g
delta force right minus left leg, Day 14 Post-treatment 24 hours (30 mg/kg IP (group 3)): 34.80 ± 6.25 g
mean Von Frey force, left operated leg, Day 14 Post-treatment 2 hours (30 mg/kg IP (group 3)): 13.20 ± 1.70 g
mean Von Frey force, left operated leg, Day 14 Post-treatment 5 hours (30 mg/kg IP (group 3)): 30.60 ± 5.10 g
delta force right minus left leg, Day 14 Pretreatment (30 mg/kg IP (group 3)): 49.50 ± 1.06 g
mean Von Frey force, left operated leg, Day 14 Pretreatment (30 mg/kg IP (group 3)): 10.50 ± 1.06 g
difference (delta) force between right healthy leg and left operated leg, Baseline (30 mg/kg IP (group 3)): 0.00 ± 0.00 g
mean Von Frey force required for withdrawal of the left operated leg, Baseline (30 mg/kg IP (group 3)): 60.00 ± 0.00 g
delta force right minus left leg, Day 21 Post-treatment 48 hours [6]: 51.10 ± 0.82 g
mean Von Frey force, left operated leg, Day 21 Post-treatment 2 hours [6]: 19.40 ± 1.80 g
mean Von Frey force, left operated leg, Day 21 Post-treatment 5 hours [6]: 22.90 ± 4.64 g
mean Von Frey force, left operated leg, Day 21 Post-treatment 24 hours [6]: 17.50 ± 2.48 g
mean Von Frey force, left operated leg, Day 21 Post-treatment 48 hours [6]: 8.90 ± 0.82 g
delta force right minus left leg, Day 21 Pretreatment [7]: 47.00 ± 1.76 g
mean Von Frey force, left operated leg, Day 21 Pretreatment [7]: 13.00 ± 1.76 g
inhibition of allodynia compared to the pretreatment value of delta withdrawal force (30 mg/kg IP, day 14, 5 hours): inhibited allodynia
pain relief activity, delta withdrawal force between the two legs vs. Vehicle (30 mg/kg IP, day 14, 5 hours): significant pain relief activity
inhibition of allodynia compared to the pretreatment value of delta withdrawal force [8]: inhibited allodynia
pain relief activity, delta withdrawal force between the two legs vs. Vehicle [8]: significant pain relief activity
inhibition of allodynia (Von Frey) compared to the pretreatment value (30 mg/kg IP, study day 14, 5 hours): inhibited allodynia
inhibition of allodynia (Von Frey) compared to the pretreatment value (30 mg/kg IP, study day 21, 2, 5 and 24 hours): inhibited allodynia
conclusion: pain analgesic item, parameters of mechanical allodynia (30 mg/kg, at 5 post administration day 14, 2, 5 and 24 hours day 21): effective
duration of analgesic effect post administration (summary statement): more than 24 hours
behaviour of the operated paw on the Von Frey apparatus (treated animals): laid completely the operated paw on the metal mesh surface
